# In patent publication US20030114360A1 (priority 2000, published 2003):
# pIC50: −log10 of the molar value.
# Key:
# [1] = system: PrP-AP; type: binding
# [2] = biological target: PrP cell surface receptor on COS-7 cells (ATCC CRL-1651)
# [3] = biological target: PrP cell surface receptor on H4 cells (ATCC HTB-148)
compound,measurement,setting,value
OC[C@@H](O)[C@@H](O)[C@H](O)[C@H](O)CO [mannitol],inhibition of PrP-AP binding to cell surfaces,[1],does not participate in the inhibition of binding
Copaxone,pIC50,[2],6.30
same,pIC50,[3],6.30
GGSRYPGQGSP [control 11 mer],inhibition of PrP-AP binding to cell surfaces by peptide,[1],Only the peptide with the PrP amino terminal sequence inhibited
KKRPKPGGWNT [N-term 11 mer],inhibition of PrP-AP binding to cell surfaces by peptide,[1],inhibited
